Laboratory results taken from ChEMBL document CHEMBL3132769, “Fragment growing to retain or alter the selectivity of anchored kinase hinge-binding fragments” (Medchemcomm, 2014).

Columns and labels:
[1] = species on record: Homo sapiens; assay: Inhibition of human full length PKA expressed in baculovirus assessed as substrate phosphorylation using fluorescence-labelled peptides as substrate at 0.2 uM after 90 mins by microfluidic peptide phosphorylation assay
[2] = molecular target: Cyclin-dependent kinase 2 (Homo sapiens) (UniProt P24941); assay: Inhibition of human full length CDK2 expressed in baculovirus assessed as substrate phosphorylation using fluorescence-labelled peptides as substrate at 420 uM after 90 mins by microfluidic peptide phosphorylation assay
[3] = molecular target: T1, MAP kinase-activated protein kinase 5 (Homo sapiens) (UniProt Q8IW41); assay: Inhibition of human full length PRAK expressed in baculovirus assessed as substrate phosphorylation using fluorescence-labelled peptides as substrate at 420 uM after 90 mins by microfluidic peptide phosphorylation assay
T1 sequence (whole entry): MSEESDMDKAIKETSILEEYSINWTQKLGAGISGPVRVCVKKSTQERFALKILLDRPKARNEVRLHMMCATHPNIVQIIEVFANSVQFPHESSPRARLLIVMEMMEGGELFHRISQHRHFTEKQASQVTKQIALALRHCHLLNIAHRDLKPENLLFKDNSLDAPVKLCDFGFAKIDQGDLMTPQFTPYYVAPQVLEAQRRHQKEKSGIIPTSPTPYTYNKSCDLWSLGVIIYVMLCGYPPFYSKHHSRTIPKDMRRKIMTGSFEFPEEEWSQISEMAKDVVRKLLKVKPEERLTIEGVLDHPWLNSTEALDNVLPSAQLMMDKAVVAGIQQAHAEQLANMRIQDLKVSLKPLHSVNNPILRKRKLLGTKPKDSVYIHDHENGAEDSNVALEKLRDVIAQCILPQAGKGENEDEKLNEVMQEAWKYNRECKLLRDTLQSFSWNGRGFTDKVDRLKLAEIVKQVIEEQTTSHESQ

[4] = molecular target: T2, Cytoplasmic tyrosine-protein kinase BMX (Homo sapiens) (UniProt P51813); assay: Inhibition of human full length BMX expressed in baculovirus assessed as substrate phosphorylation using fluorescence-labelled peptides as substrate at 9 uM after 90 mins by microfluidic peptide phosphorylation assay
T2 sequence (whole entry): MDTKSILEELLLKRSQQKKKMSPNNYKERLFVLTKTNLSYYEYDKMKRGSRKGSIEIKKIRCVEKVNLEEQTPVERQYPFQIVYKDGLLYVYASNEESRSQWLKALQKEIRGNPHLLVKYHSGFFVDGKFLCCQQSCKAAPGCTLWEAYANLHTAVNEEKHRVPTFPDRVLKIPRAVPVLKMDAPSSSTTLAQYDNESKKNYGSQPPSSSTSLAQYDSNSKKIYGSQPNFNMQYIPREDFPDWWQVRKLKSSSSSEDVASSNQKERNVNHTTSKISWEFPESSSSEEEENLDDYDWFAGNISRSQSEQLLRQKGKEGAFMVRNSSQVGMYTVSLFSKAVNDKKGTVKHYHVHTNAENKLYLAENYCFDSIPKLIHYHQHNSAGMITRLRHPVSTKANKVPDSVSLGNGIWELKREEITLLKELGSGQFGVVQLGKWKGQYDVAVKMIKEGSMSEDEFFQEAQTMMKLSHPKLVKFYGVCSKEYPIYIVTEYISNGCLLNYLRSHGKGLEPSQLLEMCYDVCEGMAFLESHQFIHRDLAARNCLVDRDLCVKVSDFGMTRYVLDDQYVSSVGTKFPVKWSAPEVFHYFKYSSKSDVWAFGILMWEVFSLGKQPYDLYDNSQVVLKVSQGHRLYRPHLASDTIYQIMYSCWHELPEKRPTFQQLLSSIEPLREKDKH

[5] = molecular target: Mitogen-activated protein kinase 14 (Homo sapiens) (UniProt Q16539); assay: Inhibition of human truncated p38 alpha expressed in Escherichia coli cell assessed as substrate phosphorylation using fluorescence-labelled peptides as substrate at 2 uM after 90 mins by microfluidic peptide phosphorylation assay
Chain of Mitogen-activated protein kinase 14 (Homo sapiens) (Q16539 whole entry, the tested form may be a part): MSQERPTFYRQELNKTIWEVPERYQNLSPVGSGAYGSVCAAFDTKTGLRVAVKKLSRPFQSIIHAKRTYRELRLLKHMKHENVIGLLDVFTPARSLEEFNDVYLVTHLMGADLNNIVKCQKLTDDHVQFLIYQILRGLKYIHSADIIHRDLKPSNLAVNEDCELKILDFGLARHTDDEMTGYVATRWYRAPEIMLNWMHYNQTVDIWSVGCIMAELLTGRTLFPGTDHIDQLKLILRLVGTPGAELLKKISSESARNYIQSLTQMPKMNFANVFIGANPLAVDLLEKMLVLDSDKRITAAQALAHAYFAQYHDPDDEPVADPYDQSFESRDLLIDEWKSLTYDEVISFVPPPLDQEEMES

[6] = molecular target: Protein kinase C eta type (Homo sapiens) (UniProt P24723); assay: Inhibition of human truncated PKC eta expressed in baculovirus assessed as substrate phosphorylation using fluorescence-labelled peptides as substrate at 2 uM after 90 mins by microfluidic peptide phosphorylation assay
Chain of Protein kinase C eta type (Homo sapiens) (P24723 whole entry, the tested form may be a part): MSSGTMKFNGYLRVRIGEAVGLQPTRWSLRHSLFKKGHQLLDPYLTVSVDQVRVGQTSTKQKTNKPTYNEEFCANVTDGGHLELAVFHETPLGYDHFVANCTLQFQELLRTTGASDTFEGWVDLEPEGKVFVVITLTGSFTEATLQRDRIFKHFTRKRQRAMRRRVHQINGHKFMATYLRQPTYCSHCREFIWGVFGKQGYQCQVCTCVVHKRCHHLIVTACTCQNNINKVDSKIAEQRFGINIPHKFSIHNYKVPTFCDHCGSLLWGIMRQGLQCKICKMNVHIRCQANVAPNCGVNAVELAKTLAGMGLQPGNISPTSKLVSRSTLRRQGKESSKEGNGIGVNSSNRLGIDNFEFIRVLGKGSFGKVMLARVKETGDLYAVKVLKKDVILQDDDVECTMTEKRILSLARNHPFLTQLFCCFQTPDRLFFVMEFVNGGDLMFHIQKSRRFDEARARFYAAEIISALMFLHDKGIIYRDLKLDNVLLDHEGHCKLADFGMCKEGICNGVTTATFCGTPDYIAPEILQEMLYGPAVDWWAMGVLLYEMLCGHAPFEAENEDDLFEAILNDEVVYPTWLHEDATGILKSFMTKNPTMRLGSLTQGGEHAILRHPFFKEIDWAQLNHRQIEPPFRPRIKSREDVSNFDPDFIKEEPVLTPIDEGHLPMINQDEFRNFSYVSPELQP

[7] = molecular target: Fibroblast growth factor receptor 4 (Homo sapiens) (UniProt P22455); conditions: 0.1 uM
Chain of Fibroblast growth factor receptor 4 (Homo sapiens) (P22455 22-802 limits assumed): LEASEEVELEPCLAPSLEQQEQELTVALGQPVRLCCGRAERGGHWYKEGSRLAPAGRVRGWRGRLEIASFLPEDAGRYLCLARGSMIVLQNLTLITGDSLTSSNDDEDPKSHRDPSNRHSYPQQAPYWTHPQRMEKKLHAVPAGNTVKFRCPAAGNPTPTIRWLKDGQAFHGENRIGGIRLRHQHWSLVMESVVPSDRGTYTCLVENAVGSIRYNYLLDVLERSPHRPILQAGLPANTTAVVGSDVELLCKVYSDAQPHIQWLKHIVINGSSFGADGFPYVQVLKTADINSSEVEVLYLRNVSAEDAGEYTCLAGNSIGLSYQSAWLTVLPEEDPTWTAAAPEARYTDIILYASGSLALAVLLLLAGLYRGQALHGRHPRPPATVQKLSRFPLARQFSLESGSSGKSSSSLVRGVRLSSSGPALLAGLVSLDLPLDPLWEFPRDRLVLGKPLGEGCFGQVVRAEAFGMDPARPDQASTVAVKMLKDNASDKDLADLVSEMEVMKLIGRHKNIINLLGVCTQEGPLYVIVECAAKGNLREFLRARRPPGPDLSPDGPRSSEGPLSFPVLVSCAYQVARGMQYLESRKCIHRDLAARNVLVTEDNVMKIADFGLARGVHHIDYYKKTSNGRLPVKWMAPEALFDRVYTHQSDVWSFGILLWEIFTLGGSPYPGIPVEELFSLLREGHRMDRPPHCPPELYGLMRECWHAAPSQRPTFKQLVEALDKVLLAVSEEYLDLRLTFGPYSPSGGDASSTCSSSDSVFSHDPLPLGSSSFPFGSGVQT
Description: Inhibition of human FGFR4 catalytic domain expressed in baculovirus assessed as substrate phosphorylation using fluorescence-labelled peptides as substrate at 0.1 uM after 90 mins by microfluidic peptide phosphorylation assay

[8] = molecular target: Serine/threonine-protein kinase PAK 2 (Homo sapiens) (UniProt Q13177); assay: Inhibition of human truncated PAK2 expressed in Escherichia coli cell assessed as substrate phosphorylation using fluorescence-labelled peptides as substrate at 0.06 uM after 90 mins by microfluidic peptide phosphorylation assay
Chain of Serine/threonine-protein kinase PAK 2 (Homo sapiens) (Q13177 whole entry, the tested form may be a part): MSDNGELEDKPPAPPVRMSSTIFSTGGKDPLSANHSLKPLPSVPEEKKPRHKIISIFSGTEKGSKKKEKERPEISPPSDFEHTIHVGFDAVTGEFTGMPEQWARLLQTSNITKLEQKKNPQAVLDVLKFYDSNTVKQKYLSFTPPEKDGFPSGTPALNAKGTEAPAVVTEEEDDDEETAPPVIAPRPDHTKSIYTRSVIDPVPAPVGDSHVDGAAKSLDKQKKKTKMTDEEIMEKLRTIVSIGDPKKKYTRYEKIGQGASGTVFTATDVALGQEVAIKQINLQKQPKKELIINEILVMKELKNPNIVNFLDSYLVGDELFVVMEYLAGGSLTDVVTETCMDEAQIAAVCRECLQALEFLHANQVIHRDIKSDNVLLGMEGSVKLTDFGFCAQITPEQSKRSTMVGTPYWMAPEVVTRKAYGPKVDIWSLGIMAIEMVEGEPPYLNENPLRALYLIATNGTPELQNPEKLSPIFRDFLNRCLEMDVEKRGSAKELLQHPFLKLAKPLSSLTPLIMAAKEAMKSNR

[9] = molecular target: MAP kinase-activated protein kinase 3 (Homo sapiens) (UniProt Q16644); assay: Inhibition of human full length MAPKAPK3 expressed in Escherichia coli cell assessed as substrate phosphorylation using fluorescence-labelled peptides as substrate at 0.06 uM after 90 mins by microfluidic peptide phosphorylation assay
Chain of MAP kinase-activated protein kinase 3 (Homo sapiens) (Q16644 whole entry, looked up): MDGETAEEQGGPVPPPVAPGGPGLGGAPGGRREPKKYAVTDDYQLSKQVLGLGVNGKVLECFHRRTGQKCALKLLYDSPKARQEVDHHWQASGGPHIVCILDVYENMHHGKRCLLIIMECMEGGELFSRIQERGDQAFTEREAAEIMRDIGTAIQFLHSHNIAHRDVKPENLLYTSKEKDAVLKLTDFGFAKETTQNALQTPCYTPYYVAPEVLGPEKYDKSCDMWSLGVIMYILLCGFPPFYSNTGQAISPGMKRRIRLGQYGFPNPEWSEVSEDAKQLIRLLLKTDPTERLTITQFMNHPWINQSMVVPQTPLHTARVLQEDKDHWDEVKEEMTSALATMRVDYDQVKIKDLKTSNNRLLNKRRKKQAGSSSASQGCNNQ

[10] = molecular target: Tyrosine-protein kinase Fyn (Homo sapiens) (UniProt P06241); assay: Inhibition of human full length FYN expressed in baculovirus assessed as substrate phosphorylation using fluorescence-labelled peptides as substrate at 8 uM after 90 mins by microfluidic peptide phosphorylation assay
Chain of Tyrosine-protein kinase Fyn (Homo sapiens) (P06241 2-537 limits assumed): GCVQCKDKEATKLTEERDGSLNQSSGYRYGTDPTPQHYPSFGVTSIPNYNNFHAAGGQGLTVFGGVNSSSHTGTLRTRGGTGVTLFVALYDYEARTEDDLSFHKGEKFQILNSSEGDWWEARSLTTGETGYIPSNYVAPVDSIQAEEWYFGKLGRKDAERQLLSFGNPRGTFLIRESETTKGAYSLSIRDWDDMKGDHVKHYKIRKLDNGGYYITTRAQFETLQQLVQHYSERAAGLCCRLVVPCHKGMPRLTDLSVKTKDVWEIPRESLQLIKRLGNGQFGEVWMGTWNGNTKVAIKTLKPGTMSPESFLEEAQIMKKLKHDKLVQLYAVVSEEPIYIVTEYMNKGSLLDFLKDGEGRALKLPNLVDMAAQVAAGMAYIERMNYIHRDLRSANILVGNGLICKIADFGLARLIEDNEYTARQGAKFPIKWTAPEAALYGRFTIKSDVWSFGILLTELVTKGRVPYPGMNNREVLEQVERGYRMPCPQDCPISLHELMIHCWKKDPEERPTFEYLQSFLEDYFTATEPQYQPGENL

[11] = molecular target: T3, Aurora kinase C (Homo sapiens) (UniProt Q9UQB9); assay: Inhibition of human full length AurC expressed in baculovirus assessed as substrate phosphorylation using fluorescence-labelled peptides as substrate at 70 uM after 90 mins by microfluidic peptide phosphorylation assay
T3 sequence (whole entry): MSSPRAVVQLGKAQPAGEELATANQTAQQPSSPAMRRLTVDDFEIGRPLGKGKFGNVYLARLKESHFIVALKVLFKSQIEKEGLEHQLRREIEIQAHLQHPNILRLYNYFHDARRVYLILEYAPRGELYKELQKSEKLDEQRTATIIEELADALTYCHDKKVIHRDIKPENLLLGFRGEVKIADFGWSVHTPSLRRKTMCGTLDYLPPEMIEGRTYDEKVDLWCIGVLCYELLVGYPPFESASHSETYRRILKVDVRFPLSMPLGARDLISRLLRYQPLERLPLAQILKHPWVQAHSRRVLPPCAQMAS

[12] = molecular target: Dual specificity tyrosine-phosphorylation-regulated kinase 1A (Rattus norvegicus) (UniProt Q63470); assay: Inhibition of rat full length DYRK1a expressed in Escherichia coli cell assessed as substrate phosphorylation using fluorescence-labelled peptides as substrate at 1000 uM after 90 mins by microfluidic peptide phosphorylation assay
[13] = molecular target: Serine/threonine-protein kinase PAK 2 (Homo sapiens) (UniProt Q13177); assay: Inhibition of human truncated PAK2 expressed in Escherichia coli cell assessed as substrate phosphorylation using fluorescence-labelled peptides as substrate at 1000 uM after 90 mins by microfluidic peptide phosphorylation assay

Clc1ccc(C2(c3ccc(-c4ncnc5[nH]cnc45)cc3)CCNCC2)cc1
inhibition [1]: 100%

c1nc(N2CCOCC2)c2nc[nH]c2n1
inhibition [2]: 75%
inhibition [3]: 40%

NCC1CN(c2ncnc3[nH]c4cnccc4c23)CCO1 (stereo not drawn)
inhibition [4]: 11%

NC1CCN(c2ncnc3[nH]ccc23)CC1
inhibition [5]: 2%
inhibition [6]: 56.5%

C[C@H](CN(C)C)Oc1nc(Nc2cc3cccc(Cl)c3cn2)cnc1C#N
inhibition [7]: 0%

NC1(Cc2ccc(Cl)cc2)CCN(c2ncnc3[nH]ccc23)CC1
inhibition [8]: 1.5%
inhibition [9]: 7%

NCC1CCN(c2ncnc3[nH]ccc23)CC1
inhibition [10]: 1%

CNCc1ccc(-c2ncnc3[nH]cnc23)cc1
inhibition [11]: 73%

c1cnc2[nH]ccc2c1
inhibition [12]: 64.5%
inhibition [13]: 13.5%
